Results from patent US9353100B2, “Macrocyclic serine protease inhibitors, pharmaceutical compositions thereof, and their use for treating HCV infections” (Idenix Pharmaceuticals LLC, priority 2011, dated 2016).
Where two headings read alike, the source gives them in different places.

What was measured:
[1] = Cytotoxicity evaluation, Cell Titer 96 AQueous One Solution; format: cell-based, human; conditions: human; Zluc cells, cellular viability
Method: (§1) For cytotoxicity evaluation, Zluc cells were treated with compounds as described above and cellular viability was monitored using the Cell Titer 96 AQueous One Solution Cell Proliferation Assay (Promega). Plates were then read at 490 nm in a Victor^3V 1420 multilabel counter (Perkin Elmer) and CC50 concentrations were determined using Microsoft Excel and XLfit 4.1 software.

[2] = molecular target: T1, HCV NS3-NS4A protease 3a (Hepatitis C virus genotype 3a, UniProt Q81258); assay: HCV protease assay (FRET peptide), genotype 3a; format: biochemical
T1 construct: HCV NS3-NS4A protease, which was produced according to the method of Taremi et al; made in house
T1 sequence (Q81258 1664-1717): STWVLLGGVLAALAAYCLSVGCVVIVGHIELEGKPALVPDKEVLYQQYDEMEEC
T1 sequence (Q81258 1033-1214): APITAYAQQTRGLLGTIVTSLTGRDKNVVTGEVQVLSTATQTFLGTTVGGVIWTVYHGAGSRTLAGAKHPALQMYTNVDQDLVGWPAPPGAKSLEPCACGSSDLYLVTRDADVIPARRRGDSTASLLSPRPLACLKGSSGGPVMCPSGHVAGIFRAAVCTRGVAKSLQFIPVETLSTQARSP
Method: (§2) General procedure: Measurement of the inhibitory effect of compounds on HCV protease activity was performed using the HiLyte Fluor™ TR/QXL™ 610 FRET peptide from AnaSpec, Inc. (San Jose, Calif.) under conditions developed in-house using 2-3 nM HCV NS3-NS4A protease, which was produced according to the method of Taremi et al. (Protein Science, 1998, 7, 2143-2149). The compounds were tested at a variety of concentrations in assay buffer containing a final DMSO concentration of 5%. Reactions were allowed to proceed for 60 min at 30° C. and fluorescence measurements were recorded with a PerkinElmer Victor^3 V 1420 Multilabel Counter. The IC50 values were determined from the percent inhibition versus concentration data using a sigmoidal non-linear regression analysis based on four parameters with XLfit 4.1 software.

[3] = molecular target: T2, HCV NS3-NS4A protease 1a (Hepatitis C virus genotype 1a, UniProt P27958); assay: HCV protease assay (FRET peptide), genotype 1a; format: biochemical; conditions: genotype 1a protease; 60 min at 30° C.; read-out: IC50 Against HS3/4A 1a
T2 construct: HCV NS3-NS4A protease, which was produced according to the method of Taremi et al; made in house
T2 sequence (P27958 1027-1208): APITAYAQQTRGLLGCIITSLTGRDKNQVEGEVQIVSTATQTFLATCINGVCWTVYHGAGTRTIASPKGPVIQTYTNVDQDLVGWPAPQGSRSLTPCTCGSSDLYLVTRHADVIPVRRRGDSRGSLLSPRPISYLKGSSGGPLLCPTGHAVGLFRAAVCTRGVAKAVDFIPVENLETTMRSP
T2 sequence (P27958 1658-1711): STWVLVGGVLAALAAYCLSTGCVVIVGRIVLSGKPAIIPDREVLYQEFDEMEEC
Method: as §2

[4] = molecular target: T3, HCV NS3-NS4A protease 1b (Hepatitis C virus genotype 1b, UniProt Q9WMX2); assay: HCV protease assay (FRET peptide), genotype 1b; format: biochemical
T3 construct: HCV NS3-NS4A protease, which was produced according to the method of Taremi et al; made in house
T3 sequence (Q9WMX2 1658-1711): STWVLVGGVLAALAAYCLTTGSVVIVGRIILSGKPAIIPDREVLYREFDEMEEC
T3 sequence (Q9WMX2 1027-1208): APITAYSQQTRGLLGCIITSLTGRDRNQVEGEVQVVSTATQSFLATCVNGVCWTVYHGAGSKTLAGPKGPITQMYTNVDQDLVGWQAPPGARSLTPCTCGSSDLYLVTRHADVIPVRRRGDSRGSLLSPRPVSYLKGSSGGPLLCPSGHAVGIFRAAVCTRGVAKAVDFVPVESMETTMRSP
Method: as §2

[5] = molecular target: T4, HCV NS3-NS4A protease 2a (Hepatitis C virus genotype 2a, UniProt Q99IB8); assay: HCV protease assay (FRET peptide), genotype 2a; format: biochemical; conditions: genotype 2a protease; 60 min at 30° C.; read-out: IC50 Against HS3/4A 2a
T4 construct: HCV NS3-NS4A protease, which was produced according to the method of Taremi et al; made in house
T4 sequence (Q99IB8 1662-1715): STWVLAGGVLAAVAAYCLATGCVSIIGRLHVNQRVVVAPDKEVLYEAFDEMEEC
T4 sequence (Q99IB8 1031-1212): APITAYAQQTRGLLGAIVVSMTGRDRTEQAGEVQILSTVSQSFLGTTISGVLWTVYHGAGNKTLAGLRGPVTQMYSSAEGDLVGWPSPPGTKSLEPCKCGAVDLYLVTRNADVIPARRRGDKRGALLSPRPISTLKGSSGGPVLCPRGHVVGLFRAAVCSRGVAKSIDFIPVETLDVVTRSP
Method: as §2

[6] = molecular target: T5, HCV NS3-NS4A protease 6a (Hepatitis C virus genotype 6a, UniProt O39927); assay: HCV protease assay (FRET peptide), genotype 6a; format: biochemical; conditions: genotype 6a protease; 60 min at 30° C.; read-out: IC50 Against HS3/4A 6a
T5 construct: HCV NS3-NS4A protease, which was produced according to the method of Taremi et al; made in house
T5 sequence (O39927 1031-1212): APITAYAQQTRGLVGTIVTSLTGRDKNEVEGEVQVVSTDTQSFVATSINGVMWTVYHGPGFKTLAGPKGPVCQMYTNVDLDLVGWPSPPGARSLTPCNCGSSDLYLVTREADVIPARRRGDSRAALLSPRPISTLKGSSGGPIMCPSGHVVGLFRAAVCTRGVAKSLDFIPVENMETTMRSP
T5 sequence (O39927 1662-1715): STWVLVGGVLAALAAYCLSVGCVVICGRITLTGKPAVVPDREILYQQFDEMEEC
Method: as §2

[7] = tested on: HCV genotype 1a H77 strain subgenomic luciferase replicon (H1a-luc) in Huh-7 cells; assay: HCV luciferase replicon assay, genotype 1a (H1a-luc); format: cell-based; conditions: for FS (1a/1b): EC50 against genotype 1a HCV divided by EC50 against genotype 1b, replicon luciferase assay; for EC50: genotype 1a H77 replicon, Huh-7 (H1a-luc), 72 hours, read-out: EC50 Against Relpicon 1a
Method: (§3) General procedure: The HCV luciferase replicon assay measures the ability of a test compound to inhibit HCV replication in cell culture after 3 days of treatment in a human hepatoma cell line (Huh-7) bearing a HCV replicon containing a luciferase-neomycin phosphotransferase fusion gene. The inhibition of HCV replication was measured by quantification of luciferase protein expression. Briefly, Huh-7 cells containing either the HCV genotype 1a H77 strain or genotype 1b Con1 strain subgenomic luciferase replicon (H1a-luc or Zluc, respectively) were grown in DMEM containing glucose, L-glutamine and sodium pyruvate, 10% fetal bovine serum (FBS), 100 IU/mL penicillin, 100 μg/mL streptomycin, 2 mM GlutaMAX, non-essential amino acids and 0.25 (H1a-luc) or 0.5 (Zluc) mg/mL G418. GlutaMAX was obtained from Invitrogen, Corp.; all other media reagents were obtained from Mediatech, Inc. For dose-response testing, the cells were seeded in 96-well plates at 1×10^4 (H1a-luc) or 7.5×10^3 (Zluc) cells/well in a volume of 50 μL and incubated at 37° C./5% CO2. Three hours after plating, 50 μL of ten 5-fold serial dilutions of compound were added, and cell cultures were incubated at 37° C./5% CO2 for 72 hours. In all cases, Huh-7 cells lacking the HCV replicon served as negative control. To assess luciferase expression, the media/compound was removed from the plates and ONE-glo Luciferase assay reagent (Promega) was added to each well. The assay plates were shaken for 3 minutes at room temperature and luciferase activity for each well was measured with a 1 sec read time on the Victor^3V multilabel counter using a 700 nm cut-off filter (Perkin Elmer). EC50 values were calculated from dose response curves from the resulting best-fit equations determined by Microsoft Excel and XLfit 4.1 software.

[8] = molecular target: T6, HCV NS3-NS4A protease 5a (Hepatitis C virus genotype 5a, UniProt O39928); assay: HCV protease assay (FRET peptide), genotype 5a; format: biochemical; conditions: genotype 5a protease; 60 min at 30° C.; read-out: IC50 Against HS3/4A 5a
T6 construct: HCV NS3-NS4A protease, which was produced according to the method of Taremi et al; made in house
T6 sequence (O39928 1659-1712): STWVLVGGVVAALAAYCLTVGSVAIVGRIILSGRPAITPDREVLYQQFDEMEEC
T6 sequence (O39928 1028-1209): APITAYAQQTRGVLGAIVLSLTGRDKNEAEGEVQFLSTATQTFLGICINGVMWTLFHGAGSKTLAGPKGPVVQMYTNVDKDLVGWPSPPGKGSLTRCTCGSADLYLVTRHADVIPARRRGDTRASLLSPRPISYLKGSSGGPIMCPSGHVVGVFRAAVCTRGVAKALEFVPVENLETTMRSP
Method: as §2

[9] = tested on: genotype 1b HCV replicon in Zluc cells; assay: Genotype 1b HCV replicon luciferase assay with 10% FCS or 45% human serum; format: cell-based; conditions: EC50 in presence of 45% HS divided by EC50 in presence of 10% FCS
Method: as §3
In Table 1, the values of FS with 45% HS were determined using the genotype 1b HCV replicon luciferase screening assay using Zluc cells, except that activity in the presence of 10% fetal calf serum (FCS) or 45% human serum (HS) was determined in parallel. The fold shift (FS) with 45% HS is the EC50 value in the presence of 45% HS divided by the EC50 value in the presence of 10% FCS. FS (1a/1b) is the EC50 value against genotype 1a HCV divided by the EC50 value against the genotype 1b in the replicon luciferase screening assay.

[10] = molecular target: T7, HCV NS3-NS4A protease 4a (Hepatitis C virus genotype 4a, UniProt O39929); assay: HCV protease assay (FRET peptide), genotype 4a; format: biochemical; conditions: genotype 4a protease; 60 min at 30° C.; read-out: IC50 Against HS3/4A 4a
T7 construct: HCV NS3-NS4A protease, which was produced according to the method of Taremi et al; made in house
T7 sequence (O39929 1658-1711): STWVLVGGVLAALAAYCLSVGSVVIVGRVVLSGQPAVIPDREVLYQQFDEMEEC
T7 sequence (O39929 1027-1208): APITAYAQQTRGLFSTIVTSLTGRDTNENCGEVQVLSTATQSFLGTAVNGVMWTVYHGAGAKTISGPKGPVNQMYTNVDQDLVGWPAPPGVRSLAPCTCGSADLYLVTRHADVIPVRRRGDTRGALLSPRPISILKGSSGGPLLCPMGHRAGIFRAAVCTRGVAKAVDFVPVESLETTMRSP
Method: as §2

[11] = tested on: HCV genotype 1b Con1 strain subgenomic luciferase replicon (Zluc) in Huh-7 cells; assay: HCV luciferase replicon assay, genotype 1b (Zluc); format: cell-based; conditions: genotype 1b Con1 replicon, Huh-7 (Zluc), 72 hours, read-out: EC50 Against Relpicon 1b
Method: as §3

[12] = tested on: Zluc cells; assay: Cytotoxicity evaluation, Cell Titer 96 AQueous One Solution; format: cell-based, human; conditions: cellular viability
Method: as §1

Cc1csc(-c2cc(O[C@H]3CC[C@H]4C(=O)N(C)CCCC/C=C\[C@@H]5C[C@@]5(C(=O)NS(=O)(=O)C5(C)CC5)NC(=O)[C@@H]4C3)nc(-c3nc(C(F)(F)F)cs3)n2)n1 [Compound C101, (1R,4R,6R,15R,18S)-1-methyl-cyclopropanesulfonic acid {13-methyl-18-[6-(4-methyl-thiazol-2-yl)-2-(4-trifluoromethyl-thiazol-2-yl)-pyrimidin-4-yloxy]-2,14-dioxo-3,13-diaza-tricyclo[13.4.0.0]nonadec-7-ene-4-carbonyl}-amide]
CC50 [1]: > 10000 nM
IC50 [2]: < 10 nM
IC50 [3]: < 10 nM
IC50 [4]: < 10 nM
IC50 [5]: < 10 nM
IC50 [6]: < 10 nM
FS (1a/1b) [7]: 7
EC50 ([7]; Hepatitis C virus): < 10 nM
IC50 [8]: < 10 nM
FS with 45% HS [9]: 16
IC50 [10]: < 10 nM
EC50 ([11]; Hepatitis C virus): < 10 nM

(1R,4R,6R,15R,18S)-1-methyl-cyclopropanesulfonic acid [18-(2,5-diphenyl-thiazol-4-yloxy)-13-methyl-2,14-dioxo-3,13-diaza-tricyclo[13.4.0.0]nonadec-7-ene-4-carbonyl]-amide [Compound D103]
CC50 [12]: > 10000 nM
IC50 ([4]; genotype 1b protease, 60 min at 30° C., read-out: IC50 Against HS3/4A 1b): 10 to 100 nM
FS (1a/1b) [7]: 113
EC50 [7]: 1000 to 10000 nM
EC50 [11]: 10 to 100 nM
